Test results: US20240067600A1, “SMALL MOLECULE INHIBITORS OF THE MITOCHONDRIAL PERMEABILITY TRANSITION PORE (mtPTP)” (UNIVERSITY OF KANSAS, priority 2014, published 2024)
Like-named read-outs stand apart in the source and are kept apart here.

What was measured:
Format in all cases: biochemical, mice
mtPTP = experiment: Calcium retention capacity (CRC) assay on isolated mitochondria; conditions: for Calcium Retention Capacity (CRC/CRC0) at 1.56 μM: 1.56 μM compound; for Calcium Retention Capacity (CRC/CRC0 at 12.5 μM): 12.5 μM compound
Protocol: Assay buffer: 250 mM sucrose, 10 mM MOPS-Tris, 0.01 mM EGTA-Tris, 1.0 mM phosphoric acid-Tris, pH 7.4. • Solution 1. 10 mM glutamate and 5 mM malate in Assay buffer. • Solution 2. 1% DMSO in Solution 2. • Solution 3. 0.5 mg/mL mitochondria and 1.0 μM Calcium Green-5N in Assay Buffer. • Solution 4. 0.25 mM CaCl2).
Protocol Summary: • 1. Freshly isolate mitochondria, prepare solutions according to the recipes in the Reagent Section. • 2. Dispense 100 μL of Solution 2 to Columns 1-2 (negative control) of the 96-well black assay plate (Falcon 353376). • 3. Dispense 200 μL of Solution 1 to Row A Columns 3-12. • 4. Next, dispense 100 μL of Solution 2 to Rows B-H Columns 3-12. • 5. Add 4 μL of 5 mM test compounds in DMSO to Row A Columns 3-12, perform 1:2 serial dilutions Row A to H Columns 3-12. • 6. Finally, dispense 100 μL of Solution 3 in all wells. • 7. Experiment starts. Read Calcium Green-5N fluorescence (excitation 485 nm, emission 538 nm) and perform a train of 4 μL Solution 4 additions with Fluoroskan Ascent FL, Thermo Scientific.

IMM potential = experiment: Rhodamine 123 (Rh123) uptake counterscreen;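 note: isolated mitochondria respiring on glutamate plus malate in sucrose MOPS-Tris buffer at pH 7.4, Rh123 added with the organelles, compounds tested across a twofold dilution series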
Protocol: Assay buffer: 250 mM sucrose, 10 mM MOPS-Tris, 0.01 mM EGTA-Tris, 1.0 mM phosphoric acid-Tris, pH 7.4 • Solution 1. 5.0 mM glutamate and 2.5 mM malate in Assay Buffer. • Solution 2. 1% DMSO in Solution 1. • Solution 3. 0.8 μM FCCP (the stock 40 μM in DMSO) in Solution 1. • Solution 4. 0.5 mg/mL mitochondria and 0.8 μM Rh123 in Assay Buffer.
Protocol Summary: • 1. Freshly isolate mitochondria, prepare solutions according to the recipes in the Reagent Section. • 2. Dispense 100 μL of Solution 3 to Columns 1-2 and Solution 2 Columns 11-12 (positive and negative controls, respectively) of the 96-well black assay plate (Falcon 353376). • 3. Dispense 200 μL of Solution 1 to Row A Columns 3-10. • 4. Next, dispense 100 μL of Solution 2 to Rows B-H Columns 3-10. • 5. Add 4 μL of 10 mM test compounds in DMSO to Row A Columns 3-10, perform 1:2 serial dilutions Row A to H Columns 3-10. • 6. Finally, dispense 100 μL of Solution 4 in all wells. The reaction starts. • 7. Keep the plate at room temperature for 5 minutes and then read fluorescence (excitation 485 nm, emission 538 nm) on Fluoroskan Ascent FL, Thermo Scientific.
Concentration-Response Counterscreen Assay to Identify Compounds that Prevent Mitochondrial Swelling Via Interference with the IMM Potential (SAR Assay AID No. 743361)
Assay buffer: 250 mM sucrose, 10 mM MOPS-Tris, 0.01 mM EGTA-Tris, 1.0 mM phosphoric acid-Tris, pH 7.4 • Solution 1. 5.0 glutamate and 2.5 mM malate in Assay Buffer. • Solution 2. 1% DMSO in Solution 1. • Solution 3. 0.8 μM FCCP (the stock 40 μM in DMSO) in Solution 1. • Solution 4. 0.5 mg/mL mitochondria and 0.8 μM Rh123 in Assay Buffer.

[1] = test system: Mitochondrial Permeability Transition Pore; experiment: Mitochondrial swelling absorbance assay
Protocol: Mitochondrial Swelling (Hit Validation, Confirmatory Assay, Concentration-Response, AID No. 720722)
Assay buffer: 250 mM sucrose, 10 mM MOPS-Tris, 0.01 mM EGTA-Tris, 1.0 mM phosphoric acid-Tris, pH 7.4 • Solution 1. 5.0 mM glutamate and 2.5 mM malate in Assay buffer. • Solution 2. 80-120 μM CaCl2) depending on mitochondrial activity in Solution 1. Note: Concentration of Ca^2+ in the assay is dependent upon the activity of the isolated mitochondria which is determined via a calcium titration just before each screening batch. A Ca^2+ concentration is used that allows for the arrival at a 2:1 window at the 20 minute time period. • Solution 3. 1% DMSO in Solution 2. • Solution 4. 2.0 mM EGTA-Tris, pH 7.4 in Solution 3. • Solution 5. 0.5 mg/mL mitochondria in Assay Buffer.
Protocol Summary: • 1. Freshly isolate mitochondria, prepare solutions according to the recipes in the reagent section • 2. Dispense 100 μL of Solution 4 to Columns 1-2 and Solution 3 Columns 11-12 (positive and negative controls, respectively) of the 96-well clear assay plate (Falcon 353072) • 3. Dispense 200 μL of Solution 1 to Row A Columns 3-10. • 4. Next, dispense 100 μL of Solution 3 to Rows B-H Columns 3-10. • 5. Add 4 μL of 5 mM test compounds in DMSO to Row A Columns 3-10, perform 1:2 serial dilutions Row A to H Columns 3-10. • 6. Finally, dispense 100 μL of Solution 5 in all wells. The reaction starts. • 7. Keep the plate at room temperature for 20 minutes and then read absorbance at 540 nm on MultiSkan EX, Thermo Scientific.
Concentration-Response Assay to Identify Compounds that Inhibit Mitochondrial Swelling (SAR Assay AID No. 743359)
Assay buffer: 250 mM sucrose, 10 mM MOPS-Tris, 0.01 mM EGTA-Tris, 1.0 mM phosphoric acid, pH 7.4 • Solution 1. 5.0 mM glutamate and 2.5 mM malate in Assay Buffer. • Solution 2. 100-120 μM CaCl2) depending on mitochondrial activity in Solution 1. Note: Concentration of Ca^2+ in the assay is dependent upon the activity of the isolated mitochondria which is determined via a calcium titration just before each screening batch. A Ca^2+ concentration is used that allows for the arrival at a 2:1 window at the 20 minute time period. • Solution 3. 1% DMSO in Solution 2. • Solution 4. 2.0 mM EGTA-Tris, pH 7.4 in Solution 3. • Solution 5. 0.5 mg/mL mitochondria in Assay Buffer.
Protocol Summary: • 1. Freshly isolate mitochondria, prepare solutions according to the recipes in the Reagent Section. • 2. Dispense 100 μL of Solution 4 to Columns 1-2 and Solution 3 Columns 11-12 (positive and negative controls, respectively) of the 96-well clear assay plate (Falcon 353072). • 3. Dispense 200 μL of Solution 1 to Row A Columns 3-10. • 4. Next, dispense 100 μL of Solution 3 to Rows B-H Columns 3-10. • 5. Add 4 μL of 5 mM test compounds in DMSO to Row A Columns 3-10, perform 1:2 serial dilutions Row A to H Columns 3-10. • 6. Finally, dispense 100 μL of Solution 5 in all wells. The reaction starts. • 7. Keep the plate at room temperature for 20 minutes and then read absorbance at 540 nm on MultiSkan EX, Thermo Scientific.

[2] = Table 1, read-out: Rh123 uptake (EC50)
[3] = Table 2, average of >3 experiments ± SEM
[4] = Table 2, average of >3 experiments ± SEM, read-out: Rh123 Assay EC50

SMILES	Calcium Retention Capacity (CRC/CRC0) at 1.56 μM (mtPTP; Table 1, average ± SEM)	Calcium Retention Capacity (CRC/CRC0 at 12.5 μM) (mtPTP; Table 1, average ± SEM)	EC50 (IMM potential; [2]) [µM]	EC50 ([1]; Table 1, average ± SEM) [µM]	Calcium Retention Capacity (CRC/CRC0 at 12.5 μM) (mtPTP; [3])	EC50 (IMM potential; [4]) [µM]	EC50 [1, 3] [µM]
COc1ccc(-c2cc(C(=O)Nc3cc(Cl)ccc3Cl)no2)cc1O	4.34 ± 0.53	9.59 ± 1.29	> 100	0.146 ± 0.0115	–	–	–
CN1CCN(Cc2ccc(NC(=O)c3ccc(Cl)c(OCc4ccccc4)c3)cc2)CC1 [Entry 5]	–	–	–	–	14.1 ± 1.1	49.6 ± 4.3	0.423 ± 0.028
Cc1ncc(Cl)cc1NC(=O)c1cc(-c2ccc(Cl)c(O)c2)on1	6.91 ± 0.47 (at 1.56 μM)	–	> 100	0.00134 ± 0.00026	–	–	–
COc1ccc(Cl)cc1C(=O)Nc1ccc(CN2CCOCC2)cc1	–	1.20 ± 0.00	> 100	8.12 ± 0.388	–	–	–
COc1ccc(Cl)cc1C(=O)Nc1ccc(CN2CCNCC2)cc1 [drawing 153]	–	1.65 ± 0.06	> 100	2.15 ± 0.1	–	–	–
COc1ccc(-c2cc(C(=O)Nc3cc(Cl)cc(Cl)c3)no2)cc1O [drawing 126]	1.17 ± 0.11 (at 1.56 μM)	–	> 100	0.277 ± 0.001	–	–	–
COc1ccc(Cl)cc1C(=O)Nc1ccc(CN2CCNCC2)cc1 [drawing 151]	–	1.24 ± 0.04	> 100	6.87 ± 0.423	–	–	–
COc1c(Cl)cccc1NC(=O)c1cc(-c2cccc(O)c2)on1	–	1.83 ± 0.17	> 100	42.7 ± 2.59	–	–	–
COc1ccc(Cl)cc1C(=O)Nc1ccc(CN2CCCCC2)cc1	–	1.80 ± 0.00	> 100	1.54 ± 0.101	–	–	–
COc1ccc(-c2cc(C(=O)Nc3cc(Cl)ccc3C)n[nH]2)cc1O	7.51 ± 0.47 (at 1.56 μM)	–	> 100	0.0024 ± 0.0004	–	–	–
O=S(=O)(Nc1ccc(CCN2CCCCC2)cc1)c1ccc(F)c(Cl)c1	–	1.07 ± 0.03	> 100	29.1 ± 2.92	–	–	–
O=C(Nc1cccc(Cl)c1)c1cc(-c2cccc(O)c2)on1 [drawing 182]	4.13 ± 0.17 (at 1.56 μM)	–	> 100	0.0788 ± 0.0058	–	–	–
O=C(Nc1ccc(CN2CCCCC2)cc1)c1ccc(Cl)c(OCc2ccc(F)cc2)c1 [Entry 12]	–	–	–	–	10.1 ± 0.8	28.6 ± 1.1	0.49 ± 0.08
O=C(Nc1ccc(CN2CCCCC2)cc1)c1cc(OCc2ccccc2)ccc1Cl [Entry 3]	–	–	–	–	2.26 ± 0.11	75.7 ± 1.8	3.6 ± 0.17
COc1ccc(-c2cc(C(=O)Nc3cccc(Cl)c3Cl)no2)cc1O	5.21 ± 0.50 (at 1.56 μM)	–	> 100	0.108 ± 0.01	–	–	–
CC1(C)CCN(CCCC(=O)c2ccc(Br)cc2)CC1	–	1.10 ± 0.05	> 100	18 ± 1.33	–	–	–
Cc1c(Cl)cccc1NC(=O)c1cc(-c2ccc(F)c(O)c2)on1 [drawing 141]	12.14 ± 0.55 (at 1.56 μM)	–	> 100	0.00089 ± 0.000141	–	–	–
COc1ccc(/C=C/C(=O)Nc2cccc(Cl)c2)cc1O [Entry 13]	–	–	–	–	7.67 ± 0.35	> 100	0.073 ± 0.007
O=C(Nc1cccc(CN2CCNCC2)c1)c1ccc(Cl)c(OCc2ccccc2)c1 [Entry 6]	–	–	–	–	16.1 ± 1.5	42.6 ± 3.1	0.286 ± 0.027
O=C(Nc1ccc(CN2CCCCC2)cc1)c1ccc(F)c(OCc2ccccc2)c1 [Entry 2]	–	–	–	–	13.3 ± 1.0	> 100	0.372 ± 0.028
Cc1ccc(Cl)cc1NC(=O)c1cc(-c2ccccc2O)on1	–	2.10 ± 0.26	> 100	6.06 ± 0.748	–	–	–
COc1ccc(Cl)cc1C(=O)Nc1cccc(CN2CCNCC2)c1	–	1.52 ± 0.06	> 100	3.27 ± 0.15	–	–	–
COc1ccc(-c2cc(C(=O)Nc3cc(Cl)ccc3F)no2)cc1O	–	5.37 ± 0.58	> 100	0.217 ± 0.0518	–	–	–
COc1ccc(-c2cc(C(=O)Nc3cc(Cl)ncc3C)no2)cc1O [drawing 202]	–	4.27 ± 0.40	> 100	0.366 ± 0.0475	–	–	–
COc1ccc(Cl)cc1NC(=O)c1cc(-c2cccc(O)c2)on1	6.95 ± 1.15	10.89 ± 1.34	> 100	0.06 ± 0.0076	–	–	–
O=C(Nc1ccc(CN2CCOCC2)cc1)c1ccc(Cl)c(OCc2ccccc2)c1 [Entry 4]	–	–	–	–	8.81 ± 0.39	> 100	0.403 ± 0.031
COc1ccc(-c2cc(C(=O)Nc3cc(Cl)cc(Cl)c3)no2)cc1O [drawing 192]	–	3.52 ± 0.44	–	–	–	–	–
O=C(Nc1cccc(Cl)c1)c1cc(-c2cccc(O)c2)on1 [drawing 166]	–	5.47 ± 0.57	–	–	–	–	–
